From article PMC8533089, “Characteristics of Neurokinin-3 Receptor and Its Binding Sites by Mutational Analysis” (Biology, 2021)
Entries after “also recorded” stand apart in the source; their conditions may differ.

Columns and labels:
LH plasma levels = test: In vivo effect of NKB antagonists on LH plasma levels (ELISA); set-up: species or system adult male tilapia (Oreochromis niloticus)
Protocol: The levels of FSH, LH and GH in the plasma were measured by specific competitive enzyme-linked immunosorbent assay (ELISA), developed for tilapia, based on recombinant gonadotropins or GH that were created by using the yeast Pichia pastoris. For the ELISAs, we used primary antibody antisera against GH [51], FSHβ [52], or against rtLHβ [53], and rtFSHβα [52], rtLHβ [53] or tiGH for the standard curves. Sensitivity for the plasma measurements were 15.84 pg/mL for LH, 0.24 pg/mL for FSH and 30.0 pg/mL for GH. The inter-assay coefficient of variation (CV) was 14.8, 12.5, and 13.0%, while intra-assay CV was 7.2, 8.0, and 8.0% for LH, FSH and GH, respectively.
Adult male tilapia (BW 89.29 ± 32.93 g; gonado-somatic index (GSI) 0.24% ± 0.40%) were injected IP (intraperitoneal) with NKB antagonists, SB-222200 or Osanetant (100 µg/kg BW), and after 0.5 h, a second injection of sGnRHa (10 µg/kg BW) was added. Control groups were injected with sGnRHa ([DAla^6, Pro^9-Net]-mammalian GnRH; Bachem, Budendorf, Switzerland) 10 µg/kg BW) as a positive control. The fish were bled from the caudal blood vessels into heparinized syringes 0, 0.5, 2, 6 and 24 h after injection. This time course is according to standard protocols used previously to test the effect of GnRH on circulating levels of LH, FSH, and GH in tilapia. Blood samples were collected from the caudal vasculature and centrifuged (3200 rpm for 30 min at 4 °C) (Centrifuge: Fresco 17, Rotor: 75003424, Thermo Scientific™, Langenselbold Germany) to obtain plasma samples, which were stored at −20 °C until assayed. Three independent experiments were carried out for the in-vivo studies.

milt volume = test: 14-day in vivo experiment: milt volume / sperm production; set-up: species or system adult male tilapia (Oreochromis niloticus); conditions: 500 µg/kg BW IP every 48 h; days 7 and 14; six fish per group; versus control
Protocol: (§1) Adult male tilapia (BW 87.29 ± 26.1 g; gonado-somatic index (GSI 0.21% ± 0.36%) were IP injected with SB-222200 (500 µg/kg BW in 25% DMSO) and saline with 25% DMSO as a control every 48 h during a 14-day period. Blood was sampled every 48 h. Milt volume was collected from 6 fish from each group 7 and 14 days after the first injection, generally according to [55].

[1] = test system: testicular cell composition; test: 14-day in vivo experiment: testicular histology and cell composition; set-up: species or system adult male tilapia (Oreochromis niloticus)
Protocol: as §1
Testes were sampled for histology at 14 days, and testicular cell composition was analyzed. Testes were fixed for 24 h, after which a portion was removed (~5 mm in length) from the center of the larger right testicular lobe for histological processing. Samples were rinsed in distilled water, dehydrated in an alcohol series, cleared in xylene, embedded in paraffin, serially sectioned at 4 μm in the transverse plane, and stained with hematoxylin and eosin using standard histological techniques. Photomicrographs were then taken (4× objective) of 3 randomly chosen sections from each individual for analysis of testicular cell composition. Randomly generated points (n = 50) were overlaid on each photograph (CPCe software), and the cell type underneath each crosshair point was identified. A minimum of 50 points was necessary to adequately determine the percentage of cell types. Cell types were identified based on previous descriptions in this and other related teleost species reviewed in [57], and the following cells were quantified: spermatogonia, spermatids, and spermatozoa (mature sperm). Each cell type was then expressed as a percentage of the total, and averaged across the 3 sections to obtain a mean for each individual.

Tac3R = test system: Tac3R; set-up: method as in PMID 10992004; conditions: cited from earlier work
Description: (§2) The effect of NKB/NKF peptides on gonadotropin secretion in fish is already well established. The first indication that NKB is widely expressed in fish species and has a stimulatory reproductive effect was shown in zebrafish, goldfish, and tilapia. […] Osetanant re ...

LH secretion = conditions: OVX ewes, micro-implants in the ARC; cited from earlier work
Description: as §2

For `CC[C@H](NC(=O)c1c(C)c(-c2ccccc2)nc2ccccc12)c1ccccc1` [SB-222200], the LH plasma levels (LH plasma levels; 100 µg/kg BW IP, 2 h after injection, versus sGnRHa, n = 10) was “significantly lower”, the “LH levels in plasma, sole IP injection” value (LH plasma levels; Discussion) was “decrease in the LH levels in plasma” and the “LH release, combination with sGnRHa” value (LH plasma levels; antagonist 100 µg/kg BW IP, then sGnRHa 10 µg/kg BW after 0.5 h, n = 10) was “inhibitory effect on LH release, without any significant change when compared to the sGnRHa; also recorded: drop in LH release”. For the same molecule, the “LH plasma levels (abstract)” value (LH plasma levels; two hours post intraperitoneal injection) was “decreased LH plasma levels”, the “sperm production (milt volume)” value (milt volume) was “retained a low sperm production after 7 and 14 days compared to that of the control group” and the number of spermatozoa ([1]; 500 µg/kg BW IP every 48 h, day 14) was “significantly reduced the number of spermatozoa”. The “other cells, % of cells” value ([1]; 500 µg/kg BW IP every 48 h, day 14, Figure 9E, *) was 48.38%, the “spermatid, % of cells” value ([1]; 500 µg/kg BW IP every 48 h, day 14, control 23.2%, significant) was 10% and the “spermatozoa, % of cells” value ([1]; 500 µg/kg BW IP every 48 h, day 14, control 23.78%, significant) was 6.63%. The “spermatogonia, % of cells” value ([1]; 500 µg/kg BW IP every 48 h, day 14, control 32.87%) was 35%, the “spermatogonia, count” value ([1]; day 14, Figure 9E) was 280 and the “other cells, count” value ([1]; day 14, Figure 9E, *) was 387. For the same molecule, the “spermatid, count” value ([1]; day 14, Figure 9E, *) was 80, the “spermatozoa, count” value ([1]; day 14, Figure 9E, *) was 53 and the “inhibition of NKB binding to the membranes of CHO cells” value (Tac3R; CHO cells stably expressing the Tac3R receptor) was “inhibited NKB binding to the membranes of CHO cells”. The “antagonism of NKB-induced Ca^2+ mobilization” value (Tac3R; HEK 293 cells) was “antagonized NKB-induced Ca^2+ mobilization in HEK 293 cells” and the LH secretion (LH secretion) was “disrupted LH secretion”.
